Measurements: patent publication US9212359B2, “Systems for induction of gene expression and protein depletion in yeast” (priority 2011, dated 2015)

Tested on: GEV
Assay: β-Galactosidase activity assay, PGAL1-lacZ reporter plasmid pCM64-GAL1 in DBY12100
Type: cell-based, S. cerevisiae
Conditions: 2 hours incubation, 1 μM or 10 μM DOC
Method: Assays were performed essentially as described in (Liu et al., 1999) with minor modifications. 5 mL of cells transformed with pCM64-GAL1 were grown to midlog phase in SC-URA medium at 30° C., then incubated at indicated temperatures for the indicated times with or without (a) 5 μL of ethanol (vehicle control), (b) 2 μL of 2.5 mM β-estradiol (Sigma) dissolved in ethanol (final concentration of 1 μM), (c) 5 μL of 1 mM DOC (deoxycorticosterone; Sigma) dissolved in ethanol (final concentration of 1 μM), or (d) 5 μL of 10 mM DOC dissolved in ethanol (final concentration of 10 μM). Cells (1 mL) were harvested by centrifugation, washed once with sterile H2O, and resuspended in 700 μl of Z buffer (100 mM sodium phosphate, pH 7.0, 10 mM KCl, 1 mM MgSO4, 50 mM β-mercaptoethanol). 50 μl of chloroform and 50 μl of 0.1% SDS were added, and the cell suspension was vortex-mixed at top speed for 30 seconds followed by addition of 200 μl of 4 mg/ml ONPG (ortho-nitrophenyl-β-galactoside; Sigma) was added to each sample and incubated at room temperature until pale yellow color appeared. […] After clarification by centrifugation, the supernatant was diluted, and A420 was measured within the linear response range. Specific β-galactosidase activity was calculated as follows: (A420×1000)/(A600×(volume of cells examined in ml)×(time of incubation in minutes)) and reported in Miller units. […]

## C[C@]12CC[C@H]3[C@@H](CCC4=CC(=O)CC[C@@]43C)[C@@H]1CC[C@@H]2C(=O)CO [deoxycorticosterone]
  induction of GEV (lacZ activity): not induced
